Laboratory results reported in patent US12616754B2, “Composition for delivery of a bioactive agent and method of manufacture and use thereof” (priority 2020, dated 2026).

Experiments:
Assay in all cases: Cell viability WST-8 assay
Assay type in all cases: cell-based
[1] = test system: BEAS-2B bronchial epithelial cells; details: 24 h
Experimental: (§1) A549, BEAS-2B, H1299 and LL2 cells were cultured in 96-well plates at a density of 1×10^4 cells/well in DMEM supplemented with 2.0 mM L-glutamine, 50 μg/mL gentamicin, and 10% (v/v) fetal bovine serum at 37° C. in 5% CO2. Cells were then treated with various concentrations of free DOX, DNA NGs, and DNA-DOX NGs. After 24 h incubation, cell proliferation was evaluated using a WST-8 reagent (Dojindo Molecular Laboratories, Japan). After transferring the supernatant to 96-well plates, the supernatant was measured on a VersaMax Microplate Reader (Molecular Devices, Sunnyvale, CA, USA) at the wavelength of 405 nm. Cell viability was determined using the following equation: cell viability (%)=[(Abs405 nm in the treated sample cells−Abs405 nm in blank)/(Abs405 nm in untreated control cells−Abs405 nm in blank)]×100, wherein Abs405 nm refers to absorbance at 405 nm.

[2] = test system: LL2 Lewis lung carcinoma cells; details: LL2, 24 h
Experimental: as §1

[3] = test system: A549 lung adenocarcinoma cells; details: A549, 24 h
Experimental: as §1

[4] = test system: H1299 non-small cell lung carcinoma cells; details: H1299, 24 h
Experimental: as §1

COc1cccc2c1C(=O)c1c(O)c3c(c(O)c1C2=O)C[C@@](O)(C(=O)CO)C[C@@H]3O[C@H]1C[C@H](N)[C@H](O)[C@H](C)O1.Cl [Free DOX, doxorubicin hydrochloride]
IC50 [1]: 5.11 mg/L
IC50 [2]: 2.33 mg/L
IC50 [3]: 2.92 mg/L
IC50 [4]: 18.9 mg/L
